According to patent publication US7795299B2, “Neo-tanshinlactone and analogs as potent and selective anti-breast cancer agents” (The University of North Carolina at Chapel Hill, priority 2004, dated 2010):
Values after ≈ are worked out from the molar mass of the structure shown.

Experiments:
[1] = system: MDA-MB-231 (estrogen receptor negative breast cancer); assay: In vitro anticancer assay (SRB), MDA-MB-231; format: cell-based, human; details: concentration that reduces cell growth by 50%, 3 days in culture, SRB; for IC50: Homo sapiens, MDA-MB-231, 72 h, read-out: ED50, MDA-MB-231 (ER−)
Description: (§1) All stock cultures were grown in T-25 flasks. Freshly trypsinized cell suspensions were seeded in 96-well microtiter plates at densities of 1500-7500 cells per well with compounds added from DMSO-diluted stock. After 3 days in culture, attached cells were fixed with cold 50% trichloroacetic acid and then stained with 0.4% sulforhodamine B (SRB). The absorbency at 562 nm was measured using a microplate reader after solubilizing the bound dye.
as §1, with “Biological assay. All” for “All”, “cultures are” for “cultures were”, “96-well microtitre” for “96-well microtiter”

[2] = system: ZR-75-1 (estrogen receptor positive breast cancer); assay: In vitro anticancer assay (SRB), ZR-75-1; format: cell-based, human; details: Homo sapiens, ZR-75-1, 72 h, concentration that reduces cell growth by 50%, 3 days in culture, read-out: ED50, ZR-75-1 (ER+)
Description: as §1
as §1, with “Biological assay. All” for “All”, “cultures are” for “cultures were”, “96-well microtitre” for “96-well microtiter”

[3] = system: MCF-7 (estrogen receptor positive breast cancer); assay: In vitro anticancer assay (SRB), MCF-7; format: cell-based, human; details: for IC50: MCF7, 72 h, read-out: ED50, MCF-7 (ER+)
Description: as §1
as §1, with “Biological assay. All” for “All”, “cultures are” for “cultures were”, “96-well microtitre” for “96-well microtiter”

[4] = system: HS 587-T (estrogen receptor negative breast cancer); assay: In vitro anticancer assay (SRB), HS 587-T; format: cell-based, human; details: concentration that reduces cell growth by 50%, 3 days in culture, printed HS587-1 in Table 4
Description: as §1
as §1, with “Biological assay. All” for “All”, “cultures are” for “cultures were”, “96-well microtitre” for “96-well microtiter”

[5] = system: SK-BR-3 (HER-2-overexpressing breast cancer); assay: In vitro anticancer assay (SRB), SK-BR-3; format: cell-based, human; details: Homo sapiens, SK-BR-3, 72 h; concentration that reduces cell growth by 50%, 3 days in culture, SRB; read-out: ED50, SK-BR-3 (ER−, HER2+)
Description: (§2) In Vitro Anticancer Assay (Nakanishi, Y. et al., J. Med. Chem. 2003, 46, 3185). All stock cultures were grown in T-25 flasks. Freshly trypsinized cell suspensions were seeded in 96-well microtiter plates at densities of 1500-7500 cells per well with compounds added from DMSO-diluted stock. After 3 days in culture, attached cells were fixed with cold 50% trichloroacetic acid and then stained with 0.4% sulforhodamine B (SRB). The absorbency at 562 nm was measured using a microplate reader after solubilizing the bound dye. The mean ED50 is the concentration of agent that reduces cell growth by 50% under the experimental conditions and is the average from at least three independent determinations that were reproducible and statistically significant (FIG. 2). The following human tumor cell lines were used in the assay: A549 (non small cell lung cancer), MCF-7 (estrogen receptor positive breast cancer), ZR-75-1 (estrogen receptor positive breast cancer), MDA-MB-231 (estrogen receptor negative breast cancer), HS 587-T (estrogen receptor negative breast cancer), SK− BR-3 (HER-2-overexpressing breast cancer), A431 (EGFRoverexpressing skin cancer), LN-CaP (AR-dependent prostate cancer), SW620 (colon cancer), PC-3 (prostate cancer), KB (nasopharyngeal carcinoma), KB-VIN (vincristine-resistant KB subline). All cell lines were obtained from the Lineberger Comprehensive Cancer Center (UNC-CH) or from ATCC (Rockville, Md.) and were cultured in RPMI-1640 medium supplemented with 25 mMHEPES, 0.25% sodium bicarbonate, 10% fetal bovine serum, and 100 μg/mL kanamycin.
(§3) Biological assay. All stock cultures are grown in T-25 flasks. Freshly trypsinized cell suspensions were seeded in 96-well microtitre plates at densities of 1500-7500 cells per well with compounds added from DMSO-diluted stock. After 3 days in culture, attached cells were fixed with cold 50% trichloroacetic acid and then stained with 0.4% sulforhodamine B (SRB). The absorbency at 562 nm was measured using a microplate reader after solubilizing the bound dye. The mean ED50 is the concentration of agent that reduces cell growth by 50% under the experimental conditions and is the average from at least three independent determinations that were reproducible and statistically significant. The following human tumor cell lines were used in the assay: A549 (non-small cell lung cancer), MCF-7 (estrogen receptor positive breast cancer), ZR-75-1 (estrogen receptor positive breast cancer), MDA MB-231 (estrogen receptor negative breast cancer), HS 587-T (estrogen receptor negative breast cancer), SK-BR-3 (estrogen receptor negative, HER-2 over-expressing breast cancer), A431 (EGFR over-expressing skin cancer), LN-CaP (AR-dependent prostate cancer), SW620 (colon cancer), PC-3 (prostate cancer), KB (nasopharyngeal carcinoma), KB-VIN (Vincristine resistant KB subline). All cell lines were obtained from the Lineberg Cancer Center (UNC-CH) or from ATCC (Rockville, Md.) and were cultured in RPMI-1640 medium supplemented with 25 mM HEPES, 0.25% sodium bicarbonate, 10% fetal bovine serum, and 100 μg/mL kanamycin.

[6] = system: A431 (EGFR over-expressing skin cancer); assay: In vitro anticancer assay (SRB), A431; format: cell-based, human; details: Homo sapiens, A-431, 72 h; concentration that reduces cell growth by 50%, 3 days in culture, SRB; read-out: ED50, A431
Description: as §2, §3

[7] = system: SW620 (colon cancer); assay: In vitro anticancer assay (SRB), SW620; format: cell-based, human; details: Homo sapiens, SW-620, 72 h; concentration that reduces cell growth by 50%, 3 days in culture, SRB; read-out: ED50, SW620
Description: as §2, §3

[8] = system: ER+ human breast cancer (MCF-7 and ZR-75-1); assay: Comparison of potency and selectivity against ER+ breast cancer cell lines in vitro; format: cell-based; details: against ER+ cell lines
Description: as §2
as §1, with “Biological assay. All” for “All”, “cultures are” for “cultures were”, “96-well microtitre” for “96-well microtiter”, “dye. The mean ED50 is the concentration of agent that reduces cell growth by 50% under the experimental conditions and is the average from at least three independent determinations that were reproducible and statistically significant. […]” for “dye.”

[9] = system: KB (nasopharyngeal carcinoma); assay: In vitro anticancer assay (SRB), KB; format: cell-based, human; details: Homo sapiens, 72 h; concentration that reduces cell growth by 50%, 3 days in culture, SRB; read-out: ED50, KB
Description: as §2, §3

[10] = system: several human cancer cell lines; assay: Cytotoxic activity against several human tumor cell lines (panel, overall statements); format: cell-based; details: several human tumor cell lines, Table 4
Description: as §2
as §1, with “Biological assay. All” for “All”, “cultures are” for “cultures were”, “96-well microtitre” for “96-well microtiter”, “dye. […]” for “dye.”

[11] = Homo sapiens, concentration that reduces cell growth by 50%, 3 days in culture, SRB

SMILES	IC50 [1]	IC50 [2]	melting point	IC50 [3, 11]	IC50 [5]	IC50 [6]	IC50 [7]	IC50 [9]	ED50, HS 587-T (ER−) [4]	times better activity than compound 2a and tamoxifen [8]	overall cytotoxic activity (in words) [10]	inhibition at 20 µg/mL ([3]; Homo sapiens, MCF7, at 20 μg/mL (Table 4), read-out: Percent inhibition at the test concentration (bracketed value), MCF-7)	ED50, MDA-MB-231 (ER−) [1]	ED50, MCF-7 (ER+) ([3]; concentration that reduces cell growth by 50%, 3 days in culture, SRB)
Cc1coc2c1c(=O)oc1c3ccccc3ccc21 [Compound 2a, 17-Methyl-11,15-dioxa-cyclopenta[a]phenanthren-12-one]	10.3 µg/mL (≈ 41.2 µM)	4 µg/mL (≈ 16 µM)	205 to 207 °C	4 µg/mL (≈ 16 µM)	–	–	–	–	7.5 µg/mL (≈ 30 µM)	–	–	–	–	–
CCc1cccc2c1ccc1c3occ(C)c3c(=O)oc21 [Compound 2c, 4-Ethyl-17-methyl-11,15-dioxa-cyclopenta[a]phenanthren-12-one]	10.3 µg/mL (≈ 37 µM)	0.18 µg/mL (≈ 0.647 µM)	145 to 147 °C	0.45 µg/mL (≈ 1.62 µM)	0.1 µg/mL (≈ 0.359 µM)	> 10 µg/mL	> 10 µg/mL	> 10 µg/mL	10 µg/mL (≈ 35.9 µM)	10 times	–	–	–	–
Cc1coc2c1c(=O)oc1c3ccccc3c(Cl)cc21 [Compound 2d, 6-Chloro-17-methyl-11,15-dioxa-cyclopenta[a]phenanthren-12-one]	–	8.6 µg/mL (≈ 30.2 µM)	220 to 221 °C	5 µg/mL (≈ 17.6 µM)	4.5 µg/mL (≈ 15.8 µM)	8 µg/mL (≈ 28.1 µM)	> 10 µg/mL	> 10 µg/mL	–	–	did not show strong activity	–	–	–
COc1cc2c3occ(C)c3c(=O)oc2c2ccccc12 [Compound 2e, 6-Methoxy-17-methyl-11,15-dioxa-cyclopenta[a]phenanthren-12-one]	–	> 10 µg/mL	203 to 205 °C	5 µg/mL (≈ 17.8 µM)	8.6 µg/mL (≈ 30.7 µM)	9.5 µg/mL (≈ 33.9 µM)	9 µg/mL (≈ 32.1 µM)	> 10 µg/mL	–	–	did not show strong activity	–	–	–
O=c1oc2c(ccc3ccccc32)c2c1C(O)CO2 (centres unmarked) [Compound 3a, 17-Hydroxy-16,17-dihydro-11,15-dioxa-cyclopenta[a]phenanthren-12-one]	3.8 µg/mL (≈ 14.9 µM)	–	203 to 205 °C	12.5 µg/mL (≈ 49.2 µM)	–	–	–	–	–	–	–	–	–	–
Cc1cccc2c1ccc1c3c(c(=O)oc12)C(O)CO3 (centres unmarked) [Compound 3b, 17-Hydroxy-4-methyl-16,17-dihydro-11,15-dioxa-cyclopenta[a]phenanthren-12-one]	–	> 10 µg/mL	–	8.3 µg/mL (≈ 30.9 µM)	8 µg/mL (≈ 29.8 µM)	3.2 µg/mL (≈ 11.9 µM)	> 10 µg/mL	> 10 µg/mL	–	–	–	–	–	–
CCc1cccc2c1ccc1c3c(c(=O)oc12)C(O)CO3 (centres unmarked) [Compound 3c, 4-Ethyl-17-hydroxy-16,17-dihydro-11,15-dioxa-cyclopenta[a]phenanthren-12-one]	5 µg/mL (≈ 17.7 µM)	–	163 to 165 °C	5 µg/mL (≈ 17.7 µM)	–	3 µg/mL (≈ 10.6 µM)	–	–	–	–	–	–	–	–
O=c1oc2c(cc(Cl)c3ccccc32)c2c1C(O)CO2 (centres unmarked) [Compound 3d, 6-Chloro-17-hydroxy-16,17-dihydro-11,15-dioxa-cyclopenta[a]phenanthren-12-one]	–	> 10 µg/mL	150 °C	5.6 µg/mL (≈ 19.4 µM)	8 µg/mL (≈ 27.7 µM)	7.8 µg/mL (≈ 27 µM)	4.2 µg/mL (≈ 14.5 µM)	9.5 µg/mL (≈ 32.9 µM)	–	–	–	–	–	–
COc1cc2c3c(c(=O)oc2c2ccccc12)C(O)CO3 (centres unmarked) [Compound 3e, 17-Hydroxy-6-methoxy-16,17-dihydro-11,15-dioxa-cyclopenta[a]phenanthren-12-one]	–	5.7 µg/mL (≈ 20.1 µM)	210 to 212 °C	5.6 µg/mL (≈ 19.7 µM)	9 µg/mL (≈ 31.7 µM)	6.5 µg/mL (≈ 22.9 µM)	> 10 µg/mL	6.8 µg/mL (≈ 23.9 µM)	–	–	–	–	–	–
C[C@H]1COC2=C1C(=O)C(=O)c1c2ccc2c1CCCC2(C)C [cryptotanshinone, reference compound]	0.16 µg/mL (≈ 0.54 µM)	–	–	0.41 µg/mL (≈ 1.38 µM)	–	–	–	–	–	–	–	–	–	–
Cc1coc2c1C(=O)C(=O)c1c-2ccc2c(C)cccc12 [tanshinone I, reference compound]	–	–	–	–	–	–	–	–	–	–	–	–	0.75 µg/mL (≈ 2.71 µM)	0.82 µg/mL (≈ 2.97 µM)
Cc1coc2c1C(=O)C(=O)c1c-2ccc2c1CCCC2(C)C [tanshinone IIA, reference compound]	0.7 µg/mL (≈ 2.38 µM)	–	–	0.38 µg/mL (≈ 1.29 µM)	–	–	–	–	–	–	–	–	–	–

Further lines, with some results ahead:

IC50 [1]	IC50 [2]	melting point	IC50 [3, 11]	IC50 [5]	IC50 [6]	IC50 [7]	IC50 [9]	SMILES	ED50, HS 587-T (ER−) [4]	times better activity than compound 2a and tamoxifen [8]	overall cytotoxic activity (in words) [10]	inhibition at 20 µg/mL ([3]; Homo sapiens, MCF7, at 20 μg/mL (Table 4), read-out: Percent inhibition at the test concentration (bracketed value), MCF-7)	ED50, MDA-MB-231 (ER−) [1]	ED50, MCF-7 (ER+) ([3]; concentration that reduces cell growth by 50%, 3 days in culture, SRB)
10.5 µg/mL (≈ 44.4 µM)	–	198 to 200 °C	> 20 µg/mL	–	–	–	–	O=c1oc2c3ccccc3ccc2c2occc12 [Compound 4a, 11,15-Dioxa-cyclopenta[a]phenanthren-12-one]	–	–	–	17%	–	–
–	> 10 µg/mL	220 to 222 °C	5.5 µg/mL (≈ 22 µM)	8.5 µg/mL (≈ 34 µM)	8.3 µg/mL (≈ 33.2 µM)	> 10 µg/mL	> 10 µg/mL	Cc1cccc2c1ccc1c3occc3c(=O)oc21 [Compound 4b, 4-Methyl-11,15-dioxa-cyclopenta[a]phenanthren-12-one]	–	–	–	–	–	–
> 10 µg/mL	–	173 to 174 °C	> 10 µg/mL	–	–	–	–	CCc1cccc2c1ccc1c3occc3c(=O)oc21 [Compound 4c, 4-Ethyl-11,15-dioxa-cyclopenta[a]phenanthren-12-one]	–	–	–	–	–	–
–	> 10 µg/mL	150 °C	7 µg/mL (≈ 25.9 µM)	> 10 µg/mL	> 10 µg/mL	> 10 µg/mL	> 10 µg/mL	O=c1oc2c3ccccc3c(Cl)cc2c2occc12 [Compound 4d, 6-Chloro-11,15-dioxa-cyclopenta[a]phenanthren-12-one]	–	–	–	–	–	–
–	8.5 µg/mL (≈ 31.9 µM)	194 to 195 °C	3.4 µg/mL (≈ 12.8 µM)	4 µg/mL (≈ 15 µM)	9.5 µg/mL (≈ 35.7 µM)	4 µg/mL (≈ 15 µM)	9.5 µg/mL (≈ 35.7 µM)	COc1cc2c3occc3c(=O)oc2c2ccccc12 [Compound 4e, 6-Methoxy-11,15-dioxa-cyclopenta[a]phenanthren-12-one]	–	–	–	–	–	–
